The source of these data is patent US20120301562A1, “COMPOSITION FOR IMPROVING BLOOD CIRCULATION, CONTAINING EXTRACT OF LINDERA OBTUSILOBA AS ACTIVE INGREDIENT” (priority 2009, published 2012).

The structures appear in SMILES notation.

In experiment [1] the test system is platelet aggregation induced by collagen. Kind of experiment: Inhibition of rat washed platelet aggregation induced by collagen (turbidimetric). The format is cell-based. The note with it: collagen 20 μg/mL, rat washed platelets.
Procedure: (§1) Rats were paralyzed with ethyl ether and blood samples were collected from abdominal aorta with a syringe containing anticoagulant 0.15 M sodium citrate whose volume ratio is 1:9 compared with blood sample volume. Blood samples were centrifuged at 200×g for 10 min to obtain platelet rich plasma (PRP) as supernatant. PRP was centrifuged at 800×g for 15 min, and precipitated platelets were washed two times with a washing buffer (137 mM NaCl, 2.9 mM KCl, 1 mM MgCl2, 5 mM glucose, 12 mM NaHCO3, 0.34 mM Na2HPO4, 1 mM EDTA, 20 mM HEPES, 0.25% BSA, pH 7.4) and suspended in a suspension buffer (suspension buffer. 137 mM NaCl, 2.9 mM KCl, 1 mM MgCl2, 5 mM glucose, 12 mM NaHCO3, 0.34 mM Na2HPO4, 20 mM HEPES, 0.25% BSA, pH 7.4) to prepare washed platelets. Platelet numbers of washed platelets used in measurement of inhibitory effect on platelet aggregation were counted with a cell counter (cell counter. Hema-vet HV950FS, Drew Scientific, USA), and washed platelets were diluted with a buffer solution so as to adjust the platelet count to 3×10^8 platelets/mL. Since platelets are aggregated at low temperatures, the foregoing experiment was carried out at room temperature.
(§2) Inhibitory effect on rat platelet aggregation was measured by turbidimetric method using an aggrerometer (Chrono-Log Co., Ltd., Havertown, Pa., USA). Washed platelets were incubated at 37° C. for 3 min and treated with various concentrations of extracts. After 2 min, platelet aggregation was induced by a platelet aggregation-inducing substance, ADP (22 μM) or collagen (20 μg/mL). Platelet aggregation was measured for 10 min and the inhibition extent of platelet aggregation was calculated. Platelets which were not treated with extracts were used for control, and the inhibition extent of platelet aggregation was calculated using the following equation.
(§3) The inhibition extent of platelet aggregation=[(A−B)/A]×100 [Equation 1] • A: aggregation % of control • B: aggregation % of extract-treated platelets
For experiment [2], the system named is platelet aggregation induced by ADP. Put plainly: Inhibition of rat washed platelet aggregation induced by ADP (turbidimetric). Type of experiment: cell-based. As to conditions: ADP 22 μM, rat washed platelets.
Procedure: as §1, §2, §3
The subject of another experiment is thromboembolism. Kind of experiment: Inhibitory effect on thromboembolism induced by collagen and epinephrine injected into the tail vein. The format is in vivo, mouse. The note with it: oral administration 1 h prior to collagen + epinephrine injection, mice. On the procedure: Experimental thrombosis induction in animals was based on Diminno's method. When a platelet aggregation inducer is injected into a tail vein of a mouse, a large amount of thrombus formation is induced in the pulmonary artery to kill the animal, and by observing whether this can be recovered or not, the inhibition extent of thrombus formation is measured. A mixture solution of collagen (Chrono-Log, […]) and epinephrine (Chrono-Log, 2 μg/mouse) was prepared to be contained in 200 μL of physiological saline as a platelet aggregation inducer and injected into the tail vein of mice. Extract suspension or physiological saline was orally administered in proportion to body weight at 1 h prior to injection of the platelet aggregation inducer to investigate antithrombotic effect. The antithrombotic effect was calculated as percentage of the number of experimental animals protected from hind leg paralysis or death induced by the injection of platelet aggregation inducer. Antithrombotic effect of extracts was determined by observing whether recovery from the persistence of paralysis for 15 min or longer after injection, death, or paralysis occurred or not. The survival rate (%) of each group was calculated with the following equation.
The survival rate (%)=(D/C)×100 [Equation 2] • C: the number of animals to which collagen was precisely injected. • D: the number of survived animals among animals to which collagen was precisely injected.

For the compound `CC(=O)Oc1ccccc1C(=O)O` [Aspirin], the values for the inhibition at 100 µg/mL in experiment [1] (final concentration 0.1 mg/mL) and in experiment [2] (final concentration 0.1 mg/mL) were 18.5% and 15.9%, respectively. Further, the inhibition at 1000 µg/mL worked out at 51.9% in experiment [1] (final concentration 1 mg/mL) and 52.3% in experiment [2] (final concentration 1 mg/mL). Moreover, the inhibition at 10000 µg/mL in experiment [1] (final concentration 10 mg/mL) is 94.4%; in experiment [2] (final concentration 10 mg/mL), 93.2%. Also, in the experiment on thromboembolism (1st experiment), the “1st (survived animals/injected animals, D/C)” value was 15/19. Also, the “2nd (survived animals/injected animals, D/C)” value in the experiment on thromboembolism (2nd experiment) is 9/20. Besides, the “3rd (survived animals/injected animals, D/C)” value in the experiment with thromboembolism (3rd experiment) is given as 9/19. Moreover, the “Survival rate (%)” value in the experiment on thromboembolism ((D/C)×100) stood at 56%. Moreover, in the experiment on thromboembolism (sum of three experiments), the “Sum (D/C)” value is reported as 33/58.
